According to PMC10320002, “In vitro antiproliferative, anti-inflammatory effects and molecular docking studies of natural compounds isolated from Sarcocephalus pobeguinii (Hua ex Pobég)” (Frontiers in Pharmacology, 2023):
“And” between values parts separate entries of the source, which are not always exact repeats. Equal entries are not always repeated.

Experiments:
[1] = tested on: NO production in LPS-stimulated RAW 264.7 cells; assay: Nitric oxide production inhibitory assay (Griess) in LPS-stimulated RAW 264.7 cells; assay type: cell-based, murine; settings: for IC50: Mus musculus, RAW264.7, LPS (2 μg/mL), 24 h; for reduction of NO production: 100 μg/mL
Procedure: (§1) Cancerous cell lines (MCF-7: human breast adenocarcinoma cells; HepG2: human hepatocellular carcinoma cells; Caco-2: human epithelial colorectal adenocarcinoma cells; A549: human epithelial lung adenocarcinoma cells), obtained from the American Type Culture Collection (ATCC) (Rockville, MD, United States of America), were cultured in Dulbecco’s Modified Eagle’s Medium (DMEM) high glucose (4.5 g/L) containing L-glutamine (4 mM) and sodium-pyruvate (Hyclone™) supplemented with 10% (v/v) fetal bovine serum (FBS) (Capricorn Scientific GmbH, South America), and incubated at 37°C with 5% CO2 in a humidified environment. African green monkey (Vero) kidney cells (also obtained from ATCC), a non-cancerous cell line, were grown in DMEM high glucose (4.5 g/L) containing L-glutamine (Lonza, Belgium) and supplemented with 5% FBS (Capricorn Scientific GmbH, South America) and 1% gentamicin (Virbac, RSA) in the same environment as cancer cells. The RAW 264.7 murine macrophage cells (obtained from ATCC) were cultured in DMEM high glucose (4.5 g/L) containing L-glutamine (Lonza, Belgium), supplemented with 10% FBS (Capricorn Scientific GmbH, South America) and 1% penicillin/streptomycin/fungizone (PSF) solution, and kept at 37°C in a 5% CO2 humidified environment.
Nitric oxide (NO) production was evaluated in lipopolysaccharide (LPS)-stimulated RAW 264.7 cells by measuring the influence of tested compounds on the accumulation of nitrite, an indicator of NO in the cell supernatant, which can be detected with Griess reagent (Merck, Darmstadt, Germany). Briefly, the RAW 264.7 cells at their exponential growth phase were seeded at a density of 2×10^4 cells per well in 96 well-microtiter plates, and they were incubated overnight at 37°C in a 5% CO2 humidified environment to allow attachment. […] Then, culture medium containing LPS (2 μg/mL) was added to each well and further incubated for 24 h at 37°C in a 5% CO2 humidified environment. Thereafter, 100 μL of cell supernatant from each well were transferred into a new 96-well microtiter plate and an equal volume of Griess reagent was added according to protocol described by the manufacturer. The microtiter plate was incubated for 10 min in the dark at room temperature, and the absorbance of the mixture was measured at 550 nm on a microplate reader (Synergy Multi-Mode Reader, BioTek, Winooski, United States of America). The quantity of nitrite was determined from a sodium nitrite standard curve, and the percentage of NO production was calculated based on the ability of each tested sample to inhibit nitric oxide production by LPS-stimulated RAW 264.7 cells compared to the control (cells treated with LPS without samples which was considered as 100% NO production). Additionally, the cell viability of treated cells was determined by using the MTT assay as previously described ([Mosmann, 1983]).

Caco-2 cells = assay: MTT antiproliferation assay, Caco-2; assay type: cell-based, human; settings: for IC50: Homo sapiens, Caco-2, 48 h, MTT; for SI values Caco-2: IC50 of non-cancerous Vero cells divided by IC50 of Caco-2
Procedure: as §1
(§2) The cancerous and non-cancerous cells were seeded at a density of 10^4 cells per well in 96-well microtiter plates, and they were incubated overnight at 37°C with 5% CO2 in a 5% CO2 humidified environment in order to allow the attachment of cells at the bottom of the plates. Then, the cells were exposed to increasing concentrations of compounds (100, 50, 25, 10 and 5 μg/mL) dissolved in dimethyl sulfoxide (DMSO) and further diluted in fresh culture medium. In this assay, the final concentration of DMSO in the culture medium was 0.5% used as negative control while doxorubicin hydrochloride (Pfizer, United States of America) was used as a positive control. The culture plates were incubated for 48 h at 37°C in a 5% CO2 humidified environment, after which the culture medium was discarded, and replaced by 200 µL of fresh culture medium with 30 µL of 3-(4,5-dimethylthiazol-2-yl)-2,5-diphenyl-2H-tetrazolium bromide (MTT) (5 mg/mL) dissolved in phosphate buffered saline ([Mosmann, 1983]). After 4 h of incubation, the medium was gently removed, and the formazan crystals were solubilized in 50 µL of DMSO. The absorbance was measured at 570 nm after shaking for 1 min on a microplate reader (Synergy Multi-Mode Reader, BioTek, Winooski, United States of America).
(§3) The cell viability rate was determined at each concentration of the compound as a percentage of cells treated with DMSO at 0.5% used as negative control. […] The selectivity index (Supporting Material) values were calculated for each compound by dividing the IC50 of non-cancerous cells by the IC50 of cancerous cells in the same units ([Mfotie Njoya et al., 2018]; [Mfotie Njoya et al., 2020]).

Vero cells = assay: MTT antiproliferation assay, non-cancerous Vero cells; assay type: cell-based, African green monkey; settings: for IC50: Chlorocebus sabaeus, Vero, 48 h, MTT
Procedure: as §1, §2, §3

A549 cells = assay: MTT antiproliferation assay, A549; assay type: cell-based, human; settings: for IC50: Homo sapiens, A549, 48 h, MTT; for SI values A549: IC50 of non-cancerous Vero cells divided by IC50 of A549
Procedure: as §1, §2, §3

HepG2 cells = assay: MTT antiproliferation assay, HepG2; assay type: cell-based, human; settings: for IC50: Homo sapiens, HepG2, 48 h, MTT; for SI values HepG2: IC50 of non-cancerous Vero cells divided by IC50 of HepG2
Procedure: as §1, §2, §3

MCF-7 cells = assay: MTT antiproliferation assay, MCF-7; assay type: cell-based, human; settings: for IC50: Homo sapiens, MCF7, 48 h, MTT; for SI values MCF7: IC50 of non-cancerous Vero cells divided by IC50 of MCF-7
Procedure: as §1, §2, §3

RAW 264.7 cells = assay: MTT cell viability of LPS-stimulated RAW 264.7 cells; assay type: cell-based, murine; settings: 100 μg/mL
Procedure: as §1, with “The RAW 264.7 murine macrophage cells (obtained from ATCC) were cultured in DMEM high glucose (4.5 g/L) containing L-glutamine (Lonza, Belgium), supplemented with 10% FBS (Capricorn Scientific GmbH, South America) and 1% penicillin/streptomycin/fungizone (PSF) solution, and kept at 37°C in a 5% CO2 humidified environment.” left out
Nitric oxide (NO) production was evaluated in lipopolysaccharide (LPS)-stimulated RAW 264.7 cells by measuring the influence of tested compounds on the accumulation of nitrite, an indicator of NO in the cell supernatant, which can be detected with Griess reagent (Merck, Darmstadt, Germany). […] The microtiter plate was incubated for 10 min in the dark at room temperature, and the absorbance of the mixture was measured at 550 nm on a microplate reader (Synergy Multi-Mode Reader, BioTek, Winooski, United States of America). The quantity of nitrite was determined from a sodium nitrite standard curve, and the percentage of NO production was calculated based on the ability of each tested sample to inhibit nitric oxide production by LPS-stimulated RAW 264.7 cells compared to the control (cells treated with LPS without samples which was considered as 100% NO production). Additionally, the cell viability of treated cells was determined by using the MTT assay as previously described ([Mosmann, 1983]).

In the case of `C[C@]12COCC=C1C[C@H]1c3[nH]c4ccccc4c3CCN1C2=O` [Compound 10, latifoliamide C], the IC50 [1] is reported as > 100 µg/mL and > 324 µM, the IC50 (Caco-2 cells) is reported as 63.2 µg/mL and 205 µM and the “SI values Caco-2” value (Caco-2 cells) is reported as 1.04. For the same molecule, the IC50 (Vero cells) was 65.8 µg/mL and 213 µM, the IC50 (A549 cells) was 143 µM and 44.2 µg/mL and the “SI values A549” value (A549 cells) was 1.49. The IC50 (HepG2 cells) was 54.5 µg/mL and 177 µM, the “SI values HepG2” value (HepG2 cells) was 1.20 and the IC50 (MCF-7 cells) was 32.9 µg/mL and 107 µM. For the same molecule, the “SI values MCF7” value (MCF-7 cells) was 2.01.

`CC1(C)CC[C@]2(C(=O)O)CC[C@]3(C)C(=CC[C@@H]4[C@@]5(C)CC[C@H](O)[C@@](C)(CO)[C@@H]5CC[C@]43C)[C@@H]2C1` [Compound 2, hederagenin] was tested, and the “reduction of NO production” value [1] was “at least 50%”, the IC50 [1] was 65.1 µg/mL and 138 µM and the IC50 (Caco-2 cells) was 36.7 µg/mL and 77.6 µM. The “SI values Caco-2” value (Caco-2 cells) was 1.24, the “cell viability of LPS-stimulated RAW 264.7 cells” value (from here on “cell viability”) (RAW 264.7 cells) was “significantly (p < 0.05) reduced the cell viability” and the IC50 (Vero cells) was 45.5 µg/mL and 96.3 µM. The IC50 (A549 cells) was 40.1 µM and 19 µg/mL, the “SI values A549” value (A549 cells) was 2.40 and the IC50 (HepG2 cells) was 24.9 µg/mL and 52.6 µM. The “SI values HepG2” value (HepG2 cells) was 1.83, the IC50 (MCF-7 cells) was 8.92 µg/mL and 18.9 µM and the “SI values MCF7” value (MCF-7 cells) was 5.11.

For `C[C@@H]1CC[C@]2(C(=O)O)CC[C@]3(C(=O)O)C(=CCC4[C@@]5(C)CC[C@H](O[C@H]6O[C@H](C)[C@@H](O)[C@H](O)[C@H]6O)C(C)(C)C5CC[C@]43C)C2[C@H]1C` (stereo partly drawn) [Compound 6, quinovic acid 3-O-[α-D-quinovopyranoside]], the “reduction of NO production” value [1] was “at least 50%”, the IC50 [1] was 18.2 µg/mL and 28.7 µM and the IC50 (Caco-2 cells) was 7.41 µg/mL and 11.7 µM. For the same molecule, the “SI values Caco-2” value (Caco-2 cells) was 0.83, the “cell viability” value (RAW 264.7 cells) was “significantly (p < 0.05) reduced the cell viability” and the IC50 (Vero cells) was 6.21 µg/mL and 9.81 µM. For the same molecule, the “selectivity (SI) towards non-cancerous Vero cells” value (Vero cells; cancer cells except A549 cells) was ≤ 1, the IC50 (A549 cells) was 3.08 µM and 1.96 µg/mL and the “SI values A549” value (A549 cells) was 3.17. The IC50 (HepG2 cells) was 41.9 µg/mL and 66.3 µM, the “SI values HepG2” value (HepG2 cells) was 0.14 and the IC50 (MCF-7 cells) was 5.96 µg/mL and 9.42 µM. For the same molecule, the “SI values MCF7” value (MCF-7 cells) was 1.04.

`C[C@@H]1CC[C@]2(C(=O)O)CC[C@]3(C(=O)O)C(=CCC4[C@@]5(C)CC[C@H](O[C@@H]6O[C@H](C)[C@@H](O)[C@H](O)[C@H]6O)C(C)(C)C5CC[C@]43C)C2[C@H]1C` (stereo partly drawn) [Compound 9, quinovic acid 3-O-[β-D-quinovopyranoside]] was tested, and the “reduction of NO production” value [1] was “at least 50%”, the IC50 [1] was 49 µg/mL and 77.4 µM and the IC50 (Caco-2 cells) was 53.7 µg/mL and 84.8 µM. For the same molecule, the “SI values Caco-2” value (Caco-2 cells) was 0.88, the “cell viability” value (RAW 264.7 cells) was “significantly (p < 0.05) reduced the cell viability” and the IC50 (Vero cells) was 47.1 µg/mL and 74.4 µM. The “selectivity (SI) for all cancer cells towards non-cancerous Vero cells” value (Vero cells; all cancer types (MCF-7, HepG2, Caco-2, A549)) was ≤ 1, the IC50 (A549 cells) was 69.9 µM and 44.2 µg/mL and the “SI values A549” value (A549 cells) was 1.06. For the same molecule, the IC50 (HepG2 cells) was 47.2 µg/mL and 74.6 µM, the “SI values HepG2” value (HepG2 cells) was 0.99 and the IC50 (MCF-7 cells) was 51.5 µg/mL and 81.4 µM. The “SI values MCF7” value (MCF-7 cells) was 0.91.
